Assay results: patent US7858619B2, “Substituted tetrahydroisochinolines as MMP inhibitors, related production method and use as medicine” (sanofi-aventis, priority 2005, dated 2010)
Values after ≈ are worked out from the molar mass of the structure shown. Read-outs that look alike come from different tables or passages of the source.

Columns and labels:
[1] = Thermodynamic solubility in PBS buffer pH 7.4, CLND (chemoluminescent nitrogen detector); format: physicochemical; settings: aqueous buffer, thermodynamic from solid, PBS buffer pH 7.4, room temperature
Protocol: The solution is then centrifuged at 14 000 rpm for 5 minutes. The solution is removed from the pellet and filtered through a syringe filter (0.45 μm pore size). The presence of a pellet is checked in order to ensure that a saturated solution was present. The filtered clear solution is analyzed by HPLC.
The dissolved amount of substance is quantified using a generic chromatographic method:
Either a calibration line derived from DMSO stock solutions (1-500 μM) of the appropriate substance is used to quantify the corresponding signal in the UV (254 nm) chromatogram of the solubility sample, or the quantification is undertaken via the peak area in the CLND trace. In the case of CLND quantification, caffeine is used as standard in a calibrating dilution.
The limit of quantitation is determined together with the calibration series. The limit of quantitation is normally 1-5 μM with UV detection, 5-10 μM with CLND quantification (depending on the number of nitrogen atoms in the molecule or the extinction coefficient of the molecule). If the intensity of the signal from the dissolved molecule is below the limit of quantitation, the result is reported as less than the limit of quantitation.
The clear solution after incubation for 16 hours is always measured as duplicates, once diluted 40-fold and once directly without dilution. The sample for which the signal is in the linear range of the calibration is used to determine the solubility.

Protein binding (human) = format: in vitro ADME; settings: plasma
Gelatinase B (MMP-9) = molecular target: T1, Gelatinase B (MMP-9) (Homo sapiens, UniProt P14780); assay: Catalytic inhibition of gelatinase B (MMP-9) in human serum (serum-based assay); format: biochemical
T1 construct: All the MMP-9 present in the samples (proMMP-9; active MMP-9 complexed or not complexed with the respective test substance) was isolated; from tissue; host or cells: freshly isolated human serum
T1 sequence (P14780 107-707 limits assumed): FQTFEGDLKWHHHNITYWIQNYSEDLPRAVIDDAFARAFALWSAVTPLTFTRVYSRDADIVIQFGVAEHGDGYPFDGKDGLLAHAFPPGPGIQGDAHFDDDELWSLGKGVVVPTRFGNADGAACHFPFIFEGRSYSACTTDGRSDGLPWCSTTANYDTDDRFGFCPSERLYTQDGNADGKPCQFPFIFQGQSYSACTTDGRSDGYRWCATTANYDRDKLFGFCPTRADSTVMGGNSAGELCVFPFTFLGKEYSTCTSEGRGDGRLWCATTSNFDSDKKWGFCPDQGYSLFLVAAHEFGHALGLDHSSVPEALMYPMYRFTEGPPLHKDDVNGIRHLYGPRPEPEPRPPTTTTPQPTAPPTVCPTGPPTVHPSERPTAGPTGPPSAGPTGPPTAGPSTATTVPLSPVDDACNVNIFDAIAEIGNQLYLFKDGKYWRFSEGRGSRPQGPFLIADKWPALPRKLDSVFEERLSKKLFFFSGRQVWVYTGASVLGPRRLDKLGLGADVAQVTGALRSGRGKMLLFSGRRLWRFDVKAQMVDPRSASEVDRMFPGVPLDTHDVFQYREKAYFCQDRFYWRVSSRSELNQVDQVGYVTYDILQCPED
Protocol: Freshly isolated human serum was shock-frozen in the desired volume in liquid N2 and then stored at −80° C. For the catalytic inhibition of MMP-9 in human serum, the appropriate parts by volume of human serum were thawed at room temperature. 100 parts by volume of undiluted, freshly thawed human serum were mixed with 1 part by volume of test substance, thoroughly mixed and incubated at 37° C. for 1 h. The test substances were dissolved in 100% dimethyl sulfoxide, and a 10 mM stock solution was prepared. For dose-effect plots, the test substances were tested in final concentrations of from […] to 0.001 μM for their catalytic inhibition of MMP-9 in human serum. The final concentration of DMSO in the reaction solution was 1% in each case.
Active MMP-9 from the reaction solutions described above was determined with the aid of a MMP-9 activity assay system (Amersham Pharmacia Biotech Europe GmbH).
After the incubation, one part by volume of the reaction mixture described above was diluted with 20 parts by volume of MMP-9 reaction buffer. The samples diluted in this way were transferred to a 96-well assay plate (Amersham Pharmacia Biotech Europe GmbH, Germany) coated with a specific MMP-9 antibody and incubated at 4° C. overnight. In addition, various concentrations of dissolved, recombinant human pro MMP-9 were likewise transferred onto the 96-well assay plate to construct the standard curve.
100 μl of the respective samples were employed per well. All the MMP-9 present in the samples (proMMP-9; active MMP-9 complexed or not complexed with the respective test substance) was isolated from the sample mixture by the specific MMP-9 antibody and bound to a solid matrix.
The immobilized MMP-9 samples were, after the incubation, washed 4× with 200 μl of washing buffer each time. Subsequently, proMMP-9 present was activated with 50 μl of APMA solution at 37° C. for 1.5 h.
The enzymic activity was measured by adding, after the incubation, 50 μl of detection reagent to each sample and mixing. The absorption of the assay plate charged in this way was measured immediately at 405 nm in an ELISA measuring instrument in order to fix time t=0. The assay plate was then incubated at 37° C. for 2 to 3 h and thereafter the absorption at 405 nm was measured.
Using the standard curve employed, the resulting measurements were converted as follows to the remaining, uninhibited active form of MMP-9 in ng/ml. • X=(Y−b)/m*20 • X=active MMP-9 in [ng/mL] • Y=measured absorption • b=intercept on y axis • m=gradient • 20=dilution factor
The inhibitory effect was calculated as percentage inhibition by the following formula: % inhibition=100−(X2*100/X1) • X1=active MMP-9 in [ng/ml] without test substance • X2=active MMP-9 in [ng/ml] with test substance
The IC50, the concentration of inhibitor which is necessary for 50% inhibition of the enzymic activity, was determined graphically by plotting the percentage inhibitions at various inhibitor concentrations.
The composition of the buffer solutions respectively employed was as follows:
Reaction buffer: • 50 mM Tris-HCl pH 7.6 • 1.5 mM NaCl • 0.5 mM CaCl2 • 1 μM ZnCl2 • 0.01% (v/v) BRIJ 35
Recombinant MMP-9 employed for standard: • 0; 0.5; 1.0; 2.0; 4.0; 8.0; 16.0 ng/ml
Washing buffer: • 0.01 M sodium phosphate buffer pH 7.0 • 0.05% Tween20
APMA solution: • 1 mM p-aminophenyl mercuric acetate • 50 mM Tris-HCl pH 7.6 • 1.5 mM NaCl • 0.5 mM CaCl2 • 1 μM ZnCl2 • 0.01% (v/v) BRIJ 35
Detection reagent: • Modified urokinase • S-2444 peptide substrate • 50 mM Tris-HCl pH 7.6 • 1.5 mM NaCl • 0.5 mM CaCl2 • 1 μM ZnCl2 • 0.01% (v/v) BRIJ 35

[2] = hydroxamic acid derivatives, read-out: MMP-9*
[3] = carboxylic acid derivatives, read-out: MMP-9 activity

Row | solubility at 16 h [1] [µM] | fraction unbound (Protein binding (human)) | IC50 (Gelatinase B (MMP-9); [2]) [nM] | IC50 (Gelatinase B (MMP-9); [3]) [nM] | SMILES
1 | 107 (≈ 61 µg/mL) | 0.012 | 200 |  | CCN(CC)CCOc1ccc2c(c1)CCN(S(=O)(=O)c1ccc(Oc3ccc(OC)cc3)cc1)C2C(=O)NO (stereo not shown) [Exemplary compound 15, 6-(2-Diethylaminoethoxy)-2-[4-(4-methoxyphenoxy)benzenesulfonyl]-1,2,3,4-tetrahydroisoquinoline-1-carboxylic acid hydroxyamide]
2 |  |  |  | 6600 | CCN(CC)CCOc1ccc2c(c1)CCN(S(=O)(=O)c1ccc(Oc3ccc(OC)cc3)cc1)C2C(=O)O (stereo not shown) [Exemplary compound 16, 6-(2-Diethylaminoethoxy)-2-[4-(4-methoxyphenoxy)benzenesulfonyl]-1,2,3,4-tetrahydroisoquinoline-1-carboxylic acid]
3 |  |  |  | 7500 | COc1ccc(Oc2ccc(S(=O)(=O)N3CCc4cc(OCCN5CCCCC5)ccc4C3C(=O)O)cc2)cc1 (stereo not shown) [Exemplary compound 14, 2-[4-(4-Methoxyphenoxy)benzenesulfonyl]-6-(2-piperidin-1-ylethoxy)-1,2,3,4-tetrahydroisoquinoline-1-carboxylic acid]

The remaining lines, values behind:

Row | SMILES | solubility at 16 h [1] [µM] | fraction unbound (Protein binding (human)) | IC50 (Gelatinase B (MMP-9); [2]) [nM] | IC50 (Gelatinase B (MMP-9); [3]) [nM]
4 | COc1ccc(Oc2ccc(S(=O)(=O)N3CCc4cc(OCCN5CCCCC5)ccc4C3C(=O)NO)cc2)cc1 (stereo not shown) [Exemplary compound 13, 2-[4-(4-Methoxyphenoxy)benzenesulfonyl]-6-(2-piperidin-1-ylethoxy)-1,2,3,4-tetrahydroisoquinoline-1-carboxylic acid hydroxyamide] | 16 (≈ 9.31 µg/mL) | 0.011 | 600 | 
5 | O=C(NO)C1c2ccccc2CCN1S(=O)(=O)c1ccc(Oc2ccc(F)cc2)cc1 (stereo not shown) [Comparative compound] | < 1 | 0.002 | 2500 | 
6 | O=C(O)C1c2ccc(OCCN3CCCCC3)cc2CCN1S(=O)(=O)c1ccc(Oc2ccc(F)cc2)cc1 (stereo not shown) [Exemplary compound 2, 2-[4-(4-Fluorophenoxy)benzenesulfonyl]-6-(2-piperidin-1-ylethoxy)-1,2,3,4-tetrahydroisoquinoline-1-carboxylic acid] |  |  |  | 8700
7 | CCN(CC)CCOc1ccc2c(c1)CCN(S(=O)(=O)c1ccc(Oc3ccc(F)cc3)cc1)C2C(=O)NO (stereo not shown) [Exemplary compound 9, 6-(2-Diethylaminoethoxy)-2-[4-(4-fluorophenoxy)benzenesulfonyl]-1,2,3,4-tetrahydroisoquinoline-1-carboxylic acid hydroxyamide] | 153 (≈ 85.3 µg/mL) | 0.061 | 20 | 
8 | O=C(O)C1c2ccccc2CCN1S(=O)(=O)c1ccc(Oc2ccc(F)cc2)cc1 (stereo not shown) [Comparative compound] |  |  |  | > 100000
9 | CN1CCN(CCCOc2ccc3c(c2)CCN(S(=O)(=O)c2ccc(Oc4ccc(F)cc4)cc2)C3C(=O)NO)CC1 (stereo not shown) [Exemplary compound 3, 2-[4-(4-Fluorophenoxy)benzenesulfonyl]-6-[3-(4-methylpiperazin-1-yl)propoxy]-1,2,3,4-tetrahydroisoquinoline-1-carboxylic acid hydroxamide] | 23 (≈ 13.8 µg/mL) | 0.01 | 200 | 
